PubChem BioAssay (NCI)
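Interpolation was linear, between the two tested concentrations surrounding the appropriate level; five concentrations were tested over 48 hours in 96-well plates. GI50 is the concentration that inhibits growth by half. TGI: total growth inhibition.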

Tests used:
Assay in all cases: growth of human tumour cells (NCI), 48 h
786-0 renal = tested on: 786-0 renal
A498 renal = tested on: A498 renal
A549 NSCLC = tested on: A549 NSCLC
ACHN renal = tested on: ACHN renal
BT-549 breast = tested on: BT-549 breast
CAKI-1 renal = tested on: CAKI-1 renal
COLO 205 colon = tested on: COLO 205 colon
DU-145 prostate = tested on: DU-145 prostate
EKVX NSCLC = tested on: EKVX NSCLC
HCC-2998 colon = tested on: HCC-2998 colon
HCT-116 colon = tested on: HCT-116 colon
HCT-15 colon = tested on: HCT-15 colon
HOP-62 NSCLC = tested on: HOP-62 NSCLC
HS 578T breast = tested on: HS 578T breast
HT29 colon = tested on: HT29 colon
IGROV1 ovarian = tested on: IGROV1 ovarian
K-562 leukemia = tested on: K-562 leukemia
KM12 colon = tested on: KM12 colon
LOX IMVI melanoma = tested on: LOX IMVI melanoma
M14 melanoma = tested on: M14 melanoma
MALME-3M melanoma = tested on: MALME-3M melanoma
MCF7 breast = tested on: MCF7 breast
MDA-MB-231 breast = tested on: MDA-MB-231 breast
MDA-MB-435 = tested on: MDA-MB-435
MOLT-4 leukemia = tested on: MOLT-4 leukemia
NCI-H226 lung = tested on: NCI-H226 lung
NCI-H23 lung = tested on: NCI-H23 lung
NCI-H460 lung = tested on: NCI-H460 lung
NCI-H522 lung = tested on: NCI-H522 lung
NCI/ADR-RES ovarian = tested on: NCI/ADR-RES ovarian
OVCAR-3 ovarian = tested on: OVCAR-3 ovarian
OVCAR-4 ovarian = tested on: OVCAR-4 ovarian
OVCAR-5 ovarian = tested on: OVCAR-5 ovarian
OVCAR-8 ovarian = tested on: OVCAR-8 ovarian
PC-3 prostate = tested on: PC-3 prostate
RPMI-8226 leukemia = tested on: RPMI-8226 leukemia
RXF 393 renal = tested on: RXF 393 renal
SF-268 CNS = tested on: SF-268 CNS
SF-295 CNS = tested on: SF-295 CNS
SF-539 CNS = tested on: SF-539 CNS
SK-MEL-2 melanoma = tested on: SK-MEL-2 melanoma
SK-MEL-28 melanoma = tested on: SK-MEL-28 melanoma
SK-MEL-5 melanoma = tested on: SK-MEL-5 melanoma
SK-OV-3 ovarian = tested on: SK-OV-3 ovarian
SN12C renal = tested on: SN12C renal
SNB-19 CNS = tested on: SNB-19 CNS
SR leukemia = tested on: SR leukemia
SW-620 colon = tested on: SW-620 colon
T-47D breast = tested on: T-47D breast
TK-10 renal = tested on: TK-10 renal
U251 CNS = tested on: U251 CNS
UACC-257 melanoma = tested on: UACC-257 melanoma
UACC-62 melanoma = tested on: UACC-62 melanoma
UO-31 renal = tested on: UO-31 renal

## Cn1ccc2c3c(Oc4ccc(NC(N)=O)cc4)ccnc3ccc21
786-0 renal
  GI50: > 100 µM
  TGI: > 100 µM
A498 renal
  GI50: > 100 µM
  TGI: > 100 µM
A549 NSCLC
  GI50: > 100 µM
  TGI: > 100 µM
ACHN renal
  GI50: > 100 µM
  TGI: > 100 µM
BT-549 breast
  GI50: > 100 µM
  TGI: > 100 µM
CAKI-1 renal
  GI50: > 100 µM
  TGI: > 100 µM
COLO 205 colon
  GI50: > 100 µM
  TGI: > 100 µM
DU-145 prostate
  GI50: > 100 µM
  TGI: > 100 µM
EKVX NSCLC
  GI50: > 100 µM
  TGI: > 100 µM
HCC-2998 colon
  GI50: > 100 µM
  TGI: > 100 µM
HCT-116 colon
  GI50: > 100 µM
  TGI: > 100 µM
HCT-15 colon
  GI50: > 100 µM
  TGI: > 100 µM
HOP-62 NSCLC
  GI50: > 100 µM
  TGI: > 100 µM
HS 578T breast
  GI50: 40.1 µM
  TGI: > 100 µM
HT29 colon
  GI50: > 100 µM
  TGI: > 100 µM
IGROV1 ovarian
  GI50: > 100 µM
  TGI: > 100 µM
K-562 leukemia
  GI50: > 100 µM
  TGI: > 100 µM
KM12 colon
  GI50: > 100 µM
  TGI: > 100 µM
LOX IMVI melanoma
  GI50: > 100 µM
  TGI: > 100 µM
M14 melanoma
  GI50: > 100 µM
  TGI: > 100 µM
MALME-3M melanoma
  GI50: > 100 µM
  TGI: > 100 µM
MCF7 breast
  GI50: > 100 µM
  TGI: > 100 µM
MDA-MB-231 breast
  GI50: > 100 µM
  TGI: > 100 µM
MDA-MB-435
  GI50: > 100 µM
  TGI: > 100 µM
MOLT-4 leukemia
  GI50: > 100 µM
  TGI: > 100 µM
NCI-H226 lung
  GI50: > 100 µM
  TGI: > 100 µM
NCI-H23 lung
  GI50: > 100 µM
  TGI: > 100 µM
NCI-H460 lung
  GI50: > 100 µM
  TGI: > 100 µM
NCI-H522 lung
  GI50: > 100 µM
  TGI: > 100 µM
NCI/ADR-RES ovarian
  GI50: > 100 µM
  TGI: > 100 µM
OVCAR-3 ovarian
  GI50: > 100 µM
  TGI: > 100 µM
OVCAR-4 ovarian
  GI50: > 100 µM
  TGI: > 100 µM
OVCAR-5 ovarian
  GI50: > 100 µM
  TGI: > 100 µM
OVCAR-8 ovarian
  GI50: > 100 µM
  TGI: > 100 µM
PC-3 prostate
  GI50: > 100 µM
  TGI: > 100 µM
RPMI-8226 leukemia
  GI50: > 100 µM
  TGI: > 100 µM
RXF 393 renal
  GI50: > 100 µM
  TGI: > 100 µM
SF-268 CNS
  GI50: > 100 µM
  TGI: > 100 µM
SF-295 CNS
  GI50: > 100 µM
  TGI: > 100 µM
SF-539 CNS
  GI50: > 100 µM
  TGI: > 100 µM
SK-MEL-2 melanoma
  GI50: > 100 µM
  TGI: > 100 µM
SK-MEL-28 melanoma
  GI50: > 100 µM
  TGI: > 100 µM
SK-MEL-5 melanoma
  GI50: 20.7 µM
  TGI: > 100 µM
SK-OV-3 ovarian
  GI50: > 100 µM
  TGI: > 100 µM
SN12C renal
  GI50: > 100 µM
  TGI: > 100 µM
SNB-19 CNS
  GI50: > 100 µM
  TGI: > 100 µM
SR leukemia
  GI50: > 100 µM
  TGI: > 100 µM
SW-620 colon
  GI50: > 100 µM
  TGI: > 100 µM
T-47D breast
  GI50: > 100 µM
  TGI: > 100 µM
TK-10 renal
  GI50: > 100 µM
  TGI: > 100 µM
U251 CNS
  GI50: > 100 µM
  TGI: > 100 µM
UACC-257 melanoma
  GI50: > 100 µM
  TGI: > 100 µM
UACC-62 melanoma
  GI50: > 100 µM
  TGI: > 100 µM
UO-31 renal
  GI50: > 100 µM
  TGI: > 100 µM
